Here are results for 1 compound from PMC4727972, “Chronic unpredicted mild stress-induced depression alter saxagliptin pharmacokinetics and CYP450 activity in GK rats” (PeerJ, 2016).

One data set deals with liver microsomal enzyme. Description: Metabolism of Sax using liver microsomal enzyme in vitro. The conditions noted are these: decreased from 0.50 mg/mL. It is filed as in vitro ADME, GK rats. Here is the method: The control and CUMS-induced rats were fasted for 12 h and killed by cervical dislocation before removal of the liver. The liver was excised, rinsed with ice-cold normal saline (0.9% NaCl, w/v), weighed for 1 g, and homogenized with 4.0 mL in a 0.05M Tris–HCl buffer (pH 7.4). The homogenate was centrifuged at 10,000 × g at 4 °C for 20 min, and the supernatant was further centrifuged at 105,000 × g at 4 °C for 60 min. The helvus sediment was reconstituted with 1.0 mL Tris–HCl buffer and stored at −80 °C for analysis.
The incubation mixtures (final volume: 500 µL) contained 1 mg/mL microsomal protein, 0.1 M phosphate buffer (PH = 7.4), 1 mM nicotinamide adenine dinucleotide phosphate (NADPH), probe drugs (1 mg/mL Phe, Ven, Nif). A total of 100 µL microsomal protein and 100 µL probe drugs were added with 250 µL phosphate buffer in a brown centrifuge tube, vortex-mixed for 1 min, and incubated at 37 °C water. After 5 min pre-incubation, the reactions were initiated by the addition of 50 µL NADPH. The incubations were performed at 37 °C for 20 min in a water bath and terminated by adding 1.4 mL cold ethyl acetate and 20 µL Lor (5 µg/mL). […]
It is well known that Sax is mainly metabolized by cytochrome 3A enzyme in the liver. […] Considering of the complicacy of metabolic system in vivo, we detected metabolism of Sax using liver microsomal enzyme in vitro with cocktails method. […]

Data set [1] can be described thus: Pharmacokinetics of Sax in plasma after oral 0.5 mg/kg (HPLC-MS/MS, noncompartmental analysis). It is filed as in vivo, GK rats. The conditions noted are these: for AUC(0-inf) / Cmax / Tmax / MRT last / half-life / Vd/F: plasma, po; for AUC(0-inf) / Cmax / Tmax / MRT last / half-life / Vd/F / CLz/F: n = 9, mean ± SD; for MRT last: read-out: MRT0−t; for half-life: read-out: T1/2z (converted); for Vd/F: read-out: Vz/F. Here is the method: All rats were fasted overnight but with free access to water. 0.5 mg/kg Sax (suspended in 5 g/L Carboxymethyl cellulose-Na) was given orally. Blood samples were collected by eye canthus at 0.17, 0.33, 0.5, 0.83, 1.17, 1.5, 2, 3, 5, 8 h. Then plasma samples were centrifuged to obtain plasma at 3,000 × g for 5 min. The samples were stored at −80 °C for analysis.
The Sax concentration was assayed by the HPLC-tandem mass spectrometry (MS/MS) method ([Gao et al., 2012]). A total of 100 µL plasma sample and 10 µL Sit (100 ng/mL) was added with 1.2 mL ethyl acetate in a centrifuge tube, vortex-mixed for 2 min and centrifuged at 10,000 × g for 3 min. The supernatant was evaporated to dry. The residue was re-dissolved with 100 µL methanol via vortex-mixed for 1 min and centrifuged at 16,000 × g for 1 min. 2.0 µL of the supernatant was injected into the HPLC-MS/MS system for analysis.
The HPLC equipped with a reverse-phase column was connected to a triple quadrupole tandem MS with an electrospray interface. The system consists of the LC system (Agilent 1260, Agilent, US) with a G1322A degasser, a G1318B auto-modifiable pump, a G1367E auto-sampler, a G1316A adjustable column temperature box, and the Agilent 6420 MS system. Chromatographic separation was achieved using a ZORBAX EP-C18 column (2.1 mm × 50 mm, 1.8 µm, Agilent). The mobile phase contained 35% methanol and 65% water (0.1% ammonium formate) with a flow rate 0.4 mL/min. The optimized conditions of MS were as follows: positive electrospray ionization (ESI^+) mode, capillary at 4,000 V, ion-spray gas temperature at 350 °C, gas flow rate at 11 L/min, and nebulizer at 15 psi. The parameters of Sax and Sit were as follows: fragmentary voltage at 110 V and 130 V, collision energy at 22 units and 18 units, respectively. The multiple-reaction monitoring mode was selected for quantifying of Sax and Sit, for which the precursor-to-product ion transitions were 316.1 → 179.9 and 407.9 → 234.9, respectively. The MassHunter Workstation software (Version B.06.00, Agilent) was used to collect and process data.
Statistical analysis and pharmacokinetics parameter analysis were performed with SPSS 16.0 (SPSS Inc., Chicago, IL, USA) and DAS 2.1 software (Drug and Statistics, Shanghai University of Traditional Chinese Medicine, Shanghai, China). Differences between the two groups were analyzed via independent-samples t Test. Data was expressed as mean ± standard deviation (SD). p < 0.05 was considered statistically significant.

On the set-up of data set [2]: method as in Fura et al., 2009. To be noted: rats; ref Fura et al., 2009; cited from earlier work.
Setting [3] is: GK, rat, 0.5 mg/kg, control group (diabetic GK rats), 0.5 mg/kg oral.
[4] abbreviates: GK, rat, 0.5 mg/kg, depression group (CUMS-induced, GK rats), 0.5 mg/kg oral.
Where [5] appears, read: depression group vs control group, 0.5 mg/kg oral, p < 0.05.

Read-outs that look alike come from different tables or passages of the source.

A word on the AUC(0-inf): it is total exposure, with the tail of the curve extrapolated. A high value points to high exposure. A word on the Cmax: it is the maximum level reached in the sampled fluid or tissue. Usually Tmax stands for the time at which the peak concentration occurs. Turning to `N#C[C@@H]1C[C@@H]2C[C@@H]2N1C(=O)[C@@H](N)C12CC3CC(CC(O)(C3)C1)C2` [Sax, (S)-3-hydroxyadamantylglycine-L-cis-4,5-methanoprolinenitrile], the “concentration of Sax after incubation with liver microsomal enzyme” value with liver microsomal enzyme (control group microsomes) was determined as 350000 ng/mL. Further, the “concentration of Sax after incubation with liver microsomal enzyme” value in the data set with liver microsomal enzyme (depression group microsomes) came to 150000 ng/mL. This compound also yielded a concentration at 5 h in data set [1] (GK, rat, 0.5 mg/kg, single plasma sample at 5 h after oral Sax (chromatogram, Fig. 3C), group not stated) of 3.05 ng/mL. Moreover, in data set [1] (setting [3]), the AUC(0-inf) came out at 67.1 ± 14.1 ng·h/mL, the highest level (Cmax) was 20.5 ± 4.61 ng/mL, the time of peak concentration (Tmax) amounted to 1.46 ± 0.38 h and the MRT last was found to be 2.55 ± 0.32 h. For the same compound, in data set [1] (setting [3]), the half-life is 1.73 ± 0.43 h and the Vd/F was 21 ± 8.22 L. Moreover, in data set [1] (setting [4]), the AUC(0-inf) is 44.6 ± 15.5 ng·h/mL, the Cmax is 14.8 ± 6.03 ng/mL, the Tmax was 1.04 ± 0.25 h and the MRT last turned out to be 1.95 ± 0.57 h. In addition, in data set [1] (setting [4]), the half-life is 1.58 ± 0.59 h and the Vd/F stood at 29.8 ± 14.2 L. In data set [1] (control group (diabetic GK rats), 0.5 mg/kg oral), this compound displayed a CLz/F of 7.35 ± 1.34 L/h. The CLz/F in data set [1] (depression group (CUMS-induced, GK rats), 0.5 mg/kg oral) was found to be 13.05 ± 6.30 L/h. Moreover, in data set [1] (setting [5]), the “decrease of area under curve (AUC0−∞) in the depression group” value is 33%, the “decrease of mean residence time (MRT0−t) in the depression group” value was 24%, the “decrease of peak concentration (Cmax) in the depression group” value came out at 27% and the “decrease of peak time (Tmax) in the depression group” value was found to be 29%. Further, the oral bioavailability entry in data set [2] was “good oral bioavailability”.
